Test results reported in publication PMC12073402, “A Selective MAP3K1 Inhibitor Facilitates Discovery of NPM1 as a Member of the Network” (Molecules, 2025).

How the values were obtained:
Experiment in all cases: KiNativ kinome profiling in PANC-1 lysate
Format in all cases: binding
HRI = target: T1, HRI (Homo sapiens, UniProt Q9BQI3); details: ATP Loop
T1 construct: we opted to conduct a kinome screen (KiNativ) in PANC-1 cell lysates; endogenous in cells; host or cells: PANC-1 cell lysate
Method in brief: (§1)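 PANC-1 lysates were incubated with 5 μM inhibitor or DMSO, then labeled with a desthiobiotin-ATP acyl-phosphate probe that biotinylates conserved kinase lysines. Tryptic peptides were streptavidin-enriched and quantified by LC-MS/MS, reported as % change in MS signal from duplicate treated and duplicate control samples.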

PIK3CB = target: T2, PIK3CB (Homo sapiens, UniProt P42338); details: ATP
T2 construct: endogenous in cells; host or cells: PANC-1 cell lysate
Method in brief: as §1

DRAK1, DRAK2 = details: 5 µM; ATP Loop; GKFAVVR
Method in brief: as §1

LATS2 = target: T3, LATS2 (Homo sapiens, UniProt Q9NRM7)
T3 construct: we opted to conduct a kinome screen (KiNativ) in PANC-1 cell lysates; endogenous in cells; host or cells: PANC-1 cell lysate
Method in brief: as §1

CaMK1a = target: T4, CaMK1a (Homo sapiens, UniProt Q14012); details: Lys1
T4 construct: endogenous in cells; host or cells: PANC-1 cell lysate
Method in brief: as §1

CaMKK2 = target: T5, CaMKK2 (Homo sapiens, UniProt Q96RR4)
T5 construct: endogenous in cells; host or cells: PANC-1 cell lysate
Method in brief: as §1

TYK2 domain2 = target: T6, TYK2 domain2 (Homo sapiens, UniProt P29597); details: ATP Loop
T6 construct: endogenous in cells; host or cells: PANC-1 cell lysate
Method in brief: as §1

EphB3 = target: T7, EphB3 (Homo sapiens, UniProt P54753); details: ATP Loop
T7 construct: endogenous in cells; host or cells: PANC-1 lysate
Method in brief: as §1

MST4, YSK1 = details: 5 µM; Lys2; DIKAANVLLSEQGDVK
Method in brief: as §1

SMG1 = target: T8, SMG1 (Homo sapiens, UniProt Q96Q15); details: ATP
T8 construct: endogenous in cells; host or cells: PANC-1 cell lysate
Method in brief: as §1

CaMK2d = target: T9, CaMK2d (Homo sapiens, UniProt Q13557); details: Lys1
T9 construct: endogenous in cells; host or cells: PANC-1 cell lysate
Method in brief: as §1

CASK = target: T10, CASK (Homo sapiens, UniProt O14936); details: Lys1
T10 construct: endogenous in cells; host or cells: PANC-1 cell lysate
Method in brief: as §1

CK2a1 = target: T11, CK2a1 (Homo sapiens, UniProt P68400); details: Protein Kinase Domain
T11 construct: endogenous in cells; host or cells: PANC-1 cell lysate
Method in brief: as §1

RSK2 domain1 = target: T12, RSK2 domain1 (Homo sapiens, UniProt P51812)
T12 construct: endogenous in cells; host or cells: PANC-1 cell lysate
Method in brief: as §1

MAPKAPK2, MAPKAPK3 = details: 5 µM; Lys2; DVKPENLLYTSK
Method in brief: as §1

PIK3CD = target: T13, PIK3CD (Homo sapiens, UniProt O00329); details: ATP
T13 construct: endogenous in cells; host or cells: PANC-1 cell lysate
Method in brief: as §1

AurB = target: T14, AurB (Homo sapiens, UniProt Q96GD4); details: Lys1
T14 construct: endogenous in cells; host or cells: PANC-1 cell lysate
Method in brief: as §1

AXL = target: T15, AXL (Homo sapiens, UniProt P30530); details: Activation Loop
T15 construct: endogenous in cells; host or cells: PANC-1 cell lysate
Method in brief: as §1

GSK3A = target: T16, GSK3A (Homo sapiens, UniProt P49840); details: Lys2
T16 construct: we opted to conduct a kinome screen (KiNativ) in PANC-1 cell lysates; endogenous in cells; host or cells: PANC-1 cell lysate
Method in brief: as §1

ACK = target: T17, ACK (Homo sapiens, UniProt Q07912)
T17 construct: endogenous in cells; host or cells: PANC-1 cell lysate
Method in brief: as §1

AAK1 = target: T18, AAK1 (Homo sapiens, UniProt Q2M2I8); details: Lys2
T18 construct: endogenous in cells; host or cells: PANC-1 cell lysate
Method in brief: as §1

DNAPK = target: T19, DNAPK (Homo sapiens, UniProt P78527); details: ATP
T19 construct: endogenous in cells; host or cells: PANC-1 lysate
Method in brief: as §1

SGK3 = target: T20, SGK3 (Homo sapiens, UniProt Q96BR1); details: Lys1
T20 construct: endogenous in cells; host or cells: PANC-1 cell lysate
Method in brief: as §1

PKCi = target: T21, PKCi (Homo sapiens, UniProt P41743)
T21 construct: endogenous in cells; host or cells: PANC-1 cell lysate
Method in brief: as §1

CLK3 = target: T22, CLK3 (Homo sapiens, UniProt P49761)
T22 construct: endogenous in cells; host or cells: PANC-1 cell lysate
Method in brief: as §1

T19 sequence (P78527 whole entry): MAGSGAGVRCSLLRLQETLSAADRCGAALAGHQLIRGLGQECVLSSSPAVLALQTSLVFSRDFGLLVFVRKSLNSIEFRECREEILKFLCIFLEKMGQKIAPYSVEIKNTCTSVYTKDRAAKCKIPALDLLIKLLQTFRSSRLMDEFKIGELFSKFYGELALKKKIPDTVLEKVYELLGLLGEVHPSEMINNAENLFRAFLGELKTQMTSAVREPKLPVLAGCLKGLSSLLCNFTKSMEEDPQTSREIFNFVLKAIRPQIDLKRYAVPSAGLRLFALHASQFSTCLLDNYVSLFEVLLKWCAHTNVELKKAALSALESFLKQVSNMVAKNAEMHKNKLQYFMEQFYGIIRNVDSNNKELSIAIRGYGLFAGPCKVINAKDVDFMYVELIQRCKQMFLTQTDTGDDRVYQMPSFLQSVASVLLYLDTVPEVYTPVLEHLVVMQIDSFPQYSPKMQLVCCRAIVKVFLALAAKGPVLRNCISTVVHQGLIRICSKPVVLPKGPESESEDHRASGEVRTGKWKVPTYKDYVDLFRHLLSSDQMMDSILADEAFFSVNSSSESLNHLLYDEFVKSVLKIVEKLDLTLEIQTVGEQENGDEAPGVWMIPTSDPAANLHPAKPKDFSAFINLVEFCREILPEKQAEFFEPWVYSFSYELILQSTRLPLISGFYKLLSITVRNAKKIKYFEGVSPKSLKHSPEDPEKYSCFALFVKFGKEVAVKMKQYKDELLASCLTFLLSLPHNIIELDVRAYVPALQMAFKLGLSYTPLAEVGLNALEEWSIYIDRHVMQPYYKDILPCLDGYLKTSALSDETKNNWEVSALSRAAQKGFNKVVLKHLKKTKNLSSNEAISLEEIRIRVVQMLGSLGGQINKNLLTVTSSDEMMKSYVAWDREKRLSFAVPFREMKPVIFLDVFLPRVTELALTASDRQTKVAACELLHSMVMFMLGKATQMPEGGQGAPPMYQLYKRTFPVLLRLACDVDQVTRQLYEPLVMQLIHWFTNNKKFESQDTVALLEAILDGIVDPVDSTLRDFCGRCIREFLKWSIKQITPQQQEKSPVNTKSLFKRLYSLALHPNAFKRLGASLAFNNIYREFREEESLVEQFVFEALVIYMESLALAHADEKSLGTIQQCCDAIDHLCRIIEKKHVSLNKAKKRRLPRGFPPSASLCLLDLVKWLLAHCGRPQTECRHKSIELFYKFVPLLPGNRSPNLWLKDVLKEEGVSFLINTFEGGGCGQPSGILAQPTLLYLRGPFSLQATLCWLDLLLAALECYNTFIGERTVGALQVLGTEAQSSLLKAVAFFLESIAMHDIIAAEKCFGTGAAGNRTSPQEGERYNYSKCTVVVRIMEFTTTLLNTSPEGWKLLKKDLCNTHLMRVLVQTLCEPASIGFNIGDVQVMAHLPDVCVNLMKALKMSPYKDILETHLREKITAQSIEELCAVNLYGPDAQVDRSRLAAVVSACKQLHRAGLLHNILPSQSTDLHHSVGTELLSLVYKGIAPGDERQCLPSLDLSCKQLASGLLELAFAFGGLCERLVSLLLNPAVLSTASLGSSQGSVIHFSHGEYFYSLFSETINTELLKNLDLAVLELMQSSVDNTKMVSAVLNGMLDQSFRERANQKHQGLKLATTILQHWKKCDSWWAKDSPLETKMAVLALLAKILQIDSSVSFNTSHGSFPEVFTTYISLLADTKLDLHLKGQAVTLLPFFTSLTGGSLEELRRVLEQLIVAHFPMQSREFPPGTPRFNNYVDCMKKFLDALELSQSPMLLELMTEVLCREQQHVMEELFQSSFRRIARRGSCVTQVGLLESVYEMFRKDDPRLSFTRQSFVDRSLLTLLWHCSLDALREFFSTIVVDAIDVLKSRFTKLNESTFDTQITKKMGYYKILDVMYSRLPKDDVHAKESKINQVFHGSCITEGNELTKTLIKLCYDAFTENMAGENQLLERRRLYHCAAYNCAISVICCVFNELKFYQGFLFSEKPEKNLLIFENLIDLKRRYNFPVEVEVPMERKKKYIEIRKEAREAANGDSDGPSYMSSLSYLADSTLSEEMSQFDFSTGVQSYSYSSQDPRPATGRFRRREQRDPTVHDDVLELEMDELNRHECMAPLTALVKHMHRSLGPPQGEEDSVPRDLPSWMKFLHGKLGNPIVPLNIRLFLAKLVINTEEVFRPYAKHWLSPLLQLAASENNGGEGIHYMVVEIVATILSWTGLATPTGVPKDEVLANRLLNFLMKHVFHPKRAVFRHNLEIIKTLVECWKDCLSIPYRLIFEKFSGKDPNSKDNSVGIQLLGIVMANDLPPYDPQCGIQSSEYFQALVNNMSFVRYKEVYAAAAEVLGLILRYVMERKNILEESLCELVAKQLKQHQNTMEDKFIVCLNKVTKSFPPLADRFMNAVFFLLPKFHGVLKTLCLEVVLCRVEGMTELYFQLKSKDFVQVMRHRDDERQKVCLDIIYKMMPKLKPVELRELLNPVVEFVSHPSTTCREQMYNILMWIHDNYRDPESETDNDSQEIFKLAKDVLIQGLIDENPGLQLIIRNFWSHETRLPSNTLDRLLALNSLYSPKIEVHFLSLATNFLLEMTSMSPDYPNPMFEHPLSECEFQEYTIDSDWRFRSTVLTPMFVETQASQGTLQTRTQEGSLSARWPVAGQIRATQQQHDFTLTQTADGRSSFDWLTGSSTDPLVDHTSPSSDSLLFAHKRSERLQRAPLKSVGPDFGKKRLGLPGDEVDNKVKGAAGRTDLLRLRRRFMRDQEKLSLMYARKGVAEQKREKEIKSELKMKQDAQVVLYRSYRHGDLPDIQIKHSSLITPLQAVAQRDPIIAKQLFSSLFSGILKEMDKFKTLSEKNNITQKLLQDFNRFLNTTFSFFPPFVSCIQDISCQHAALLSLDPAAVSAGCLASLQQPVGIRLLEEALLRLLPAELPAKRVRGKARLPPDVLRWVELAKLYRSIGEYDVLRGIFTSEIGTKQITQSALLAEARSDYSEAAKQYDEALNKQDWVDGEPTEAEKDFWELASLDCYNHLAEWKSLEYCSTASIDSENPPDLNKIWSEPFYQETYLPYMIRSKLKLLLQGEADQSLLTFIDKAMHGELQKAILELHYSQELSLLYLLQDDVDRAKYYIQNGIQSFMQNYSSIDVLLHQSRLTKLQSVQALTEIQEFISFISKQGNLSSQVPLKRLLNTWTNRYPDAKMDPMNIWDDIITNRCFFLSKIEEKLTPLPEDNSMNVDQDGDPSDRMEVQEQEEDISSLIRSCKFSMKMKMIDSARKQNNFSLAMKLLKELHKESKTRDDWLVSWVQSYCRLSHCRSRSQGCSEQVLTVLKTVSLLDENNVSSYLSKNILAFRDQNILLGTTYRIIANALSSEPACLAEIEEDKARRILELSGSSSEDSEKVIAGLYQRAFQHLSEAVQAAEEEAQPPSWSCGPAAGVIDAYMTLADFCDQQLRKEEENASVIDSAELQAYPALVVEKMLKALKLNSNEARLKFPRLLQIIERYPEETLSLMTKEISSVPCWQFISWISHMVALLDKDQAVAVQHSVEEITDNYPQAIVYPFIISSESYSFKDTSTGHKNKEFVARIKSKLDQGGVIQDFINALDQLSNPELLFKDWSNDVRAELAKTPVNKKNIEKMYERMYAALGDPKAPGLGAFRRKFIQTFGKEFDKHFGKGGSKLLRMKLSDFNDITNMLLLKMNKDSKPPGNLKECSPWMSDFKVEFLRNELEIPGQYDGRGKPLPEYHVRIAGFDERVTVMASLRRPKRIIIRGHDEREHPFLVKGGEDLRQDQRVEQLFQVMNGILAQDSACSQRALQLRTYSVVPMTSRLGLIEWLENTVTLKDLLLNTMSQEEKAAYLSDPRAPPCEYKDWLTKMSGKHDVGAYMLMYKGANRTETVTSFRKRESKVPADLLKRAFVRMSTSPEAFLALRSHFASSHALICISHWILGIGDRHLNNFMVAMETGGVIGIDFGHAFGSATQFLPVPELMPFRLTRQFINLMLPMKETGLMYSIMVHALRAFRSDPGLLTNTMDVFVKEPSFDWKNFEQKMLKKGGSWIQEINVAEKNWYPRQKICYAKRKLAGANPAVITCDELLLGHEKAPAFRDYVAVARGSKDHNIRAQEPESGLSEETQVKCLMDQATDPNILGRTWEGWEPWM
T17 sequence (Q07912 whole entry): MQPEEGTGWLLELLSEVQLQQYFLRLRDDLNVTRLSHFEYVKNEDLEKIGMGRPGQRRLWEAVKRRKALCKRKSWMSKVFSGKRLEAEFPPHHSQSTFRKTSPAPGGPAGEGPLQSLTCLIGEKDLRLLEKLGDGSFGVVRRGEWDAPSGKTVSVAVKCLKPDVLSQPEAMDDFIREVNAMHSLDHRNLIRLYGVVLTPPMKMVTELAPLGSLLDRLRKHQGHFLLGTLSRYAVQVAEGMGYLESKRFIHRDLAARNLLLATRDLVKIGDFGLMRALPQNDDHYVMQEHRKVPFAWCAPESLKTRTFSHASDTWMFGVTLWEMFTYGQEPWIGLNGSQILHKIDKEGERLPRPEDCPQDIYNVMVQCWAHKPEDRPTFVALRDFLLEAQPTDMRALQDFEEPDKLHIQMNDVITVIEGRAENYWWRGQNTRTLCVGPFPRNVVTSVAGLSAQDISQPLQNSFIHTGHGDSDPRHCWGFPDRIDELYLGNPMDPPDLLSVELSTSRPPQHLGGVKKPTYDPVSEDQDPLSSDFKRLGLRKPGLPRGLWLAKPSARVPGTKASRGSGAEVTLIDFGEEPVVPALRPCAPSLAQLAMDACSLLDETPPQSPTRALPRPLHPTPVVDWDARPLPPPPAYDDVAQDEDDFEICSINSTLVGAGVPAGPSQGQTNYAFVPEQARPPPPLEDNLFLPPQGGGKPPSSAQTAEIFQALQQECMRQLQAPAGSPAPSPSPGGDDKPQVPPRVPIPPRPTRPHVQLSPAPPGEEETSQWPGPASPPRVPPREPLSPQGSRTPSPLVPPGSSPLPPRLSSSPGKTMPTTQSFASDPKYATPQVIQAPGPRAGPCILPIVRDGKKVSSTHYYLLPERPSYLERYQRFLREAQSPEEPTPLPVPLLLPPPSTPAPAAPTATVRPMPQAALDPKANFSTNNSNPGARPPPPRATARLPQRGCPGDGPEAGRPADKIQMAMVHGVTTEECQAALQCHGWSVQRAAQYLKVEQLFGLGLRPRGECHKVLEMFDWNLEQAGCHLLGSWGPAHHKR

Cn1cc(-c2cnc3ccc(NC(=O)Nc4ccc(F)c(C(F)(F)F)c4)cc3n2)cn1 [51-106, 1-(4-Fluoro-3-(trifluoromethyl)phenyl)-3-(3-(1-methyl-1H-pyrazol-4-yl)quinoxalin-6-yl)urea]
inhibition at 5 µM (HRI): ≤ 0% | inhibition at 5 µM (PIK3CB; VFGEDSVGVIFKNGDDLR): 1.7% | inhibition at 5 µM (PIK3CB; VFGEDSVGVIFKNGDDLRQDMLTLQMLR): 31.4% | % Inhibition (DRAK1, DRAK2): 4.6% | inhibition at 5 µM (LATS2; Lys1, VDTHALYAMKTLR): ≤ 0% | inhibition at 5 µM (LATS2; Lys2, DIKPDNILIDLDGHIK): 1.4% | inhibition at 5 µM (CaMK1a): ≤ 0% | inhibition at 5 µM (CaMKK2; Lys1, LAYNENDNTYYAMKVLSK): 2.6% | inhibition at 5 µM (CaMKK2; Lys2, DIKPSNLLVGEDGHIK): ≤ 0% | inhibition at 5 µM (TYK2 domain2): ≤ 0% | inhibition at 5 µM (EphB3): 1.6% | % Inhibition (MST4, YSK1): 12.8% | % Inhibition (SMG1; 5 µM, DTVTIHSVGGTITILPTKTKPK): NB (NB = No Binding (≤ 0)) | inhibition at 5 µM (SMG1; […]): ≤ 0% | inhibition at 5 µM (CaMK2d): ≤ 0% | inhibition at 5 µM (CASK): ≤ 0% | inhibition at 5 µM (CK2a1): ≤ 0% | inhibition at 5 µM (RSK2 domain1; ATP Loop, LTDFGLSKESIDHEKK): ≤ 0% | inhibition at 5 µM (RSK2 domain1; Lys1, QLYAMKVLK): 23.6% | % Inhibition (MAPKAPK2, MAPKAPK3): NB (NB = No Binding (≤ 0)) | inhibition at 5 µM (PIK3CD): 1.8% | inhibition at 5 µM (AurB): ≤ 0% | inhibition at 5 µM (AXL): ≤ 0% | inhibition at 5 µM (GSK3A): ≤ 0% | % Inhibition (ACK; 5 µM, Activation Loop, KVPFAWCAPESLK): NB (NB = No Binding (≤ 0)) | inhibition at 5 µM (ACK; Lys1, […]): ≤ 0% | inhibition at 5 µM (AAK1): 3.5% | % Inhibition (DNAPK; 5 µM, EHPFLVKGGEDLR): NB (NB = No Binding (≤ 0)) | inhibition at 5 µM (DNAPK; […]): ≤ 0% | inhibition at 5 µM (SGK3): ≤ 0% | % Inhibition (PKCi; 5 µM, Lys2, DLKLDNVLLDSEGHIK): NB (NB = No Binding (≤ 0)) | inhibition at 5 µM (PKCi; Lys1, […]): ≤ 0% | inhibition at 5 µM (CLK3; ATP Loop, YEIVGNLGEGTFGKVVECLDHAR): ≤ 0% | inhibition at 5 µM (CLK3; Lys2, FLHENQLTHTDLKPENILFVNSEFETLYNEHK): 4.4%
